According to patent US20240294697A1, “AMPHIPHILIC OLIGOMERS AND SELF-ASSEMBLING HYDROGELS FORMED THEREFROM” (THE GOVERNING COUNCIL OF THE UNIVERSITY OF TORONTO, priority 2021, published 2024):

Test system: primary chondrocytes
Settings: H2O2 between 25 and 100 μM
Protocol: To prepare for this experiment, specific concentrations of H2O2 and ascorbic acid were prepared by testing a range of concentrations and incubating at 37° C. On the following day, 200 μL of each condition was treated to pre-seeded primary chondrocytes at passage 6 and evaluated for its metabolic activity as per below. Each condition was performed in triplicate.
Cryopreserved Human Chondrocytes (HCH) were purchased from PromoCell at passage 2 (P2). HCH were cultured in proprietary chondrocyte growth medium and supplemented with 10% Growth Medium Supplement by PromoCell at 37° C. and 5% CO2. The medium was changed every 2-3 days until the cells achieved 80% confluence. Once the cells reached confluence, the chondrocytes were treated with the DetachKit (purchased by PromoCell). […]
Following the 24-hour exposure of the leachable material and controls, the treated media was aspirated and 110 μL of a 10% solution (v/v) of WST-1 reagent in media was added to each well and incubated for two hours to ensure that all viable cells converted the tetrazolium salt to formazan. The absorbance of formazan was read on a Plate Reader (Perkin Elmer) at 450 nm. The absorbance values of all treatments and the positive control were normalized to cells treated with media.

OO [H2O2, hydrogen peroxide]
concentrations evidencing cell toxicity: above 50 μM | concentrations resulting in metabolically active cells: below 50 μM
